The structures appear in SMILES notation.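 In this assay, cells in 96-well plates receive the compound at five concentrations for 48 hours. Endpoints are linearly interpolated between the surrounding concentrations. GI50 = concentration required for 50% inhibition of growth.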 Activity calls are given as the source filed them. Rule as the data show it: active = GI50 up to about 1.1 µM and inactive = higher.

Experimental findings from ChEMBL document CHEMBL1201862, “PubChem BioAssay data set” (2004) are described below.

Test systems include ACHN; MDA-N; NCI/ADR-RES; UACC-257; SF-268; EKVX; MDA-MB-435; A498; K562; KM12; HL-60; IGROV-1; HCC 2998; Hs-578T; SN12C; SK-OV-3; HCT-15; PC-3; SNB-75.
What all share (assay): growth of human tumour cells (NCI), 48 h

With `CN(CCCNC(=O)c1nn(-c2ccc(Cl)cc2Cl)c2c1ccc1ccccc12)CCCNC(=O)c1nn(-c2ccc(Cl)cc2Cl)c2c1ccc1ccccc12`, the GI50 was 1.66 µM (inactive) in the assay on ACHN; 1.73 µM (inactive) in the assay with MDA-N; 1.59 µM (inactive) with NCI/ADR-RES; 1.78 µM (inactive) with UACC-257; 1.61 µM (inactive) in the assay on SF-268; 1.69 µM (inactive) in the assay with EKVX. The GI50 is 1.71 µM (inactive) in the assay with MDA-MB-435; 1.43 µM (inactive) in the assay with A498; 1.1 µM (active) in the assay on K562; 1.77 µM (inactive) in the assay on KM12; 0.322 µM (active) in the assay on HL-60; 1.74 µM (inactive) in the assay on IGROV-1. Also, the GI50 is 1.53 µM (inactive) in the assay on HCC 2998; 1.44 µM (inactive) in the assay with Hs-578T; 1.65 µM (inactive) in the assay with SN12C; 2 µM (inactive) in the assay on SK-OV-3; 1.7 µM in the assay on HCT-15; 1.68 µM (inactive) in the assay on PC-3. Moreover, the GI50 with SNB-75 was 1.75 µM (inactive).
As to `COC(=O)C1CCC(=O)N1C(c1ccccc1)c1ccc(OC)c(OC)c1` (configuration not stated), the GI50 in the assay on ACHN, in the assay with MDA-N, in the assay on NCI/ADR-RES, with UACC-257, in the assay on SF-268 and in the assay on EKVX was > 100 µM (inactive) each time. The GI50 with MDA-MB-435, in the assay with A498, with K562, in the assay with KM12, in the assay with HL-60 and with IGROV-1 was > 100 µM (inactive) each time. Further, the GI50 was > 100 µM (inactive) in the assay on HCC 2998; > 100 µM (inactive) with Hs-578T; > 100 µM (inactive) in the assay on SN12C; > 100 µM (inactive) in the assay on SK-OV-3; more than 100 µM in the assay on HCT-15; > 100 µM (inactive) in the assay with PC-3. Moreover, the GI50 with SNB-75 is 15.7 µM (inactive).
As to `COC(=O)[C@H]1C=C[C@H](OC2OC(COC(C)=O)C(OC(C)=O)C(OC(C)=O)C2OC(C)=O)n2c(=O)n(-c3ccccc3)c(=O)n21` (some centres not stated), the GI50 was 1.66 µM (inactive) in the assay with ACHN; 4.68 µM (inactive) with MDA-N; 6.07 µM (inactive) in the assay on NCI/ADR-RES; 7.52 µM (inactive) in the assay on UACC-257; 3.67 µM (inactive) in the assay with SF-268; 2.59 µM (inactive) in the assay with EKVX. The GI50 with MDA-MB-435 is 4.38 µM (inactive); in the assay with A498 it was 4.97 µM (inactive); in the assay with K562, 1.77 µM (inactive); in the assay on KM12 it was 11 µM (inactive); in the assay on HL-60, 0.406 µM (active); in the assay with IGROV-1 it was 4.98 µM (inactive). The GI50 was 2.23 µM (inactive) in the assay with HCC 2998; 2.38 µM (inactive) with Hs-578T; 6.52 µM (inactive) in the assay with SN12C; 18.4 µM (inactive) in the assay on SK-OV-3; 1.41 µM in the assay with HCT-15; 10.7 µM (inactive) in the assay with PC-3. Moreover, the GI50 in the assay with SNB-75 was 12.1 µM (inactive).
In the case of `Cc1ccc(/C=C2\CCCC(CN(C)C)C2=O)cc1` (configuration not stated), the GI50 is 2.24 µM (inactive) in the assay with ACHN; 1.97 µM (inactive) in the assay on MDA-N; 3.32 µM (inactive) with NCI/ADR-RES; 1.88 µM (inactive) in the assay with UACC-257; 2.06 µM (inactive) in the assay with SF-268; 17.5 µM (inactive) in the assay on EKVX. The GI50 with MDA-MB-435 is 1.85 µM (inactive); in the assay with A498, 14.3 µM (inactive); with K562, 1.66 µM (inactive); in the assay with KM12 it was 1.55 µM (inactive); in the assay with HL-60, 0.841 µM (active); in the assay on IGROV-1, 1.96 µM (inactive). The GI50 in the assay with HCC 2998 is 14.2 µM (inactive); in the assay on Hs-578T, 3.21 µM (inactive); in the assay on SN12C, 1.91 µM (inactive); in the assay on SK-OV-3, 13.6 µM (inactive); with HCT-15 it was 1.97 µM; with PC-3 it was 3.33 µM (inactive). In addition, the GI50 in the assay with SNB-75 was 8.13 µM (inactive).
Regarding `O=C1NC(Nc2ccccc2)=N/C1=C\c1c(Cl)cccc1Cl`, the GI50 in the assay on ACHN was 37.5 µM (inactive); with MDA-N it was 19.8 µM (inactive); in the assay on NCI/ADR-RES, 23.6 µM (inactive); in the assay on UACC-257, 23.8 µM (inactive); in the assay with SF-268, 29.3 µM (inactive); in the assay on EKVX, 20.6 µM (inactive). Besides, the GI50 with MDA-MB-435 is 32.4 µM (inactive); with A498 it was 32.3 µM (inactive); in the assay with K562, 21 µM (inactive); with KM12, 29.5 µM (inactive); with HL-60, 3.32 µM (inactive); with IGROV-1, 17.8 µM (inactive). In addition, the GI50 in the assay on HCC 2998 was 21.4 µM (inactive); with Hs-578T, 25.8 µM (inactive); in the assay with SN12C, 15.7 µM (inactive); in the assay on SK-OV-3 it was 21.6 µM (inactive); in the assay on HCT-15, 49.8 µM; in the assay on PC-3, 17.8 µM (inactive). Moreover, the GI50 in the assay on SNB-75 is 18.9 µM (inactive).
As for `Cc1csc(-n2nc(C)cc2C)n1`, the GI50 with ACHN, in the assay on MDA-N, in the assay on NCI/ADR-RES, in the assay with UACC-257, in the assay on SF-268 and in the assay with EKVX was > 100 µM (inactive) each time. In addition, the GI50 with MDA-MB-435, in the assay with A498, in the assay on K562, in the assay with KM12, with HL-60 and in the assay on IGROV-1 was > 100 µM (inactive) in each case. The GI50 with HCC 2998 was > 100 µM (inactive); in the assay on Hs-578T, > 100 µM (inactive); in the assay on SN12C it was > 100 µM (inactive); in the assay with SK-OV-3, > 100 µM (inactive); with HCT-15, more than 100 µM; with PC-3, > 100 µM (inactive). Further, the GI50 in the assay with SNB-75 was > 100 µM (inactive).
Turning to `CC1(CCCO)CCCCCC(C)(CCCO)C1=O` (configuration not stated), the GI50 with ACHN, in the assay with MDA-N, with NCI/ADR-RES, in the assay on UACC-257, in the assay on SF-268 and in the assay with EKVX was > 100 µM (inactive) throughout. Further, the GI50 in the assay on MDA-MB-435, in the assay with A498, in the assay on K562, in the assay with KM12, with HL-60 and in the assay with IGROV-1 was > 100 µM (inactive) throughout. Further, the GI50 in the assay on HCC 2998 was > 100 µM (inactive); with Hs-578T it was > 100 µM (inactive); with SN12C it was > 100 µM (inactive); with SK-OV-3, > 100 µM (inactive); in the assay with HCT-15 it was more than 100 µM; in the assay with PC-3, > 100 µM (inactive). The GI50 with SNB-75 is 92.3 µM (inactive).
`O=C(N/N=C\c1ccc([N+](=O)[O-])cc1)c1ccccc1Nc1ccccc1C(=O)N/N=C/c1ccc([N+](=O)[O-])cc1`: the GI50 in the assay with ACHN, in the assay on MDA-N, with NCI/ADR-RES, with UACC-257, in the assay on SF-268 and in the assay on EKVX was > 100 µM (inactive) in each case. For the same compound, the GI50 in the assay on MDA-MB-435 is > 100 µM (inactive); with A498, > 100 µM (inactive); with K562 it was > 100 µM (inactive); in the assay with KM12, > 100 µM (inactive); in the assay with HL-60, 89.7 µM (inactive); in the assay on IGROV-1 it was > 100 µM (inactive). The GI50 in the assay on HCC 2998 is > 100 µM (inactive); with Hs-578T, > 100 µM (inactive); in the assay with SN12C, > 100 µM (inactive); in the assay with SK-OV-3, > 100 µM (inactive); with HCT-15, more than 100 µM; with PC-3, > 100 µM (inactive). Moreover, the GI50 with SNB-75 was > 100 µM (inactive).
